Values after ≈ are worked out from the molar mass of the structure shown.

Assay [1] relates to Mycobacterium tuberculosis. The assay can be described thus: Antimycobacterial activity against Mycobacterium tuberculosis H37Rv harboring cyd deletion mutant measured after 2 weeks by microplate alamar blue assay. The class given is functional.
Assay [2] has as its system Mycobacterium tuberculosis H37Rv. The experiment in a line: Inhibition of QCR6 A317T mutant in Mycobacterium tuberculosis H37Rv harboring cyd deletion mutant assessed as reduction in bacterial growth relative to wild-type QCR6.
Assay [3] has the same test system. The assay can be described thus: Inhibition of QCR3 W312G mutant in Mycobacterium tuberculosis H37Rv harboring cyd deletion mutant assessed as reduction in bacterial growth relative to wild-type QCR3.
The test system is the same in assay [4]. The assay can be described thus: Inhibition of QCR5 M342I mutant in Mycobacterium tuberculosis H37Rv harboring cyd deletion mutant assessed as reduction in bacterial growth relative to wild-type QCR5.
Assay [5] shares this test system. The experiment in a line: Inhibition of QCR1 A317V mutant in Mycobacterium tuberculosis H37Rv harboring cyd deletion mutant assessed as reduction in bacterial growth relative to wild-type QCR1.
The test system is the same in assay [6]. The experiment in a line: Inhibition of QCR4 A396T mutant in Mycobacterium tuberculosis H37Rv harboring cyd deletion mutant assessed as reduction in bacterial growth relative to wild-type QCR4.
Assay [7] shares this test system. The assay can be described thus: Inhibition of QCR2 M342T mutant in Mycobacterium tuberculosis H37Rv harboring cyd deletion mutant assessed as reduction in bacterial growth relative to wild-type QCR2.
Assay [8] shares this test system. The assay can be described thus: Inhibition of QCR7 S182T mutant in Mycobacterium tuberculosis H37Rv harboring cyd deletion mutant assessed as reduction in bacterial growth relative to wild-type QCR7.

The MIC is the smallest concentration in the dilution series that meets the test's criterion for growth inhibition. The low end stands for greater potency, the high end for weaker potency. As for `C#CCNC(=O)COc1cc(C)nc2ccc(OC)cc12`, the MIC in assay [1] came out at 21.98 µM (≈ 6.25 µg/mL).
As to `COc1ccc2nc(C)cc(OCC(=O)NCc3ccccc3)c2c1`, the fold change (FC) in assay [2] is 23.5; in assay [3], 47; in assay [4] it was 3.9; in assay [5], > 250; in assay [6], 3.9; in assay [7], 3. In addition, the fold change (FC) in assay [8] was found to be 15.7. This compound also displayed an MIC in assay [1] of 0.59 µM (≈ 0.198 µg/mL).
On to `COc1ccc2nc(C)cc(OCC(=O)Nc3cccc(Br)c3)c2c1`, for which the MIC in assay [1] stood at 0.37 µM (≈ 0.148 µg/mL).
For the compound `COc1ccc(NC(=O)COc2cc(C)nc3ccc(OC)cc23)cc1`, the fold change (FC) was determined as 24.5 in assay [2]; 24.5 in assay [3]; 3.1 in assay [4]; 63.9 in assay [5]; 3.1 in assay [6]; 4.1 in assay [7]. In assay [8], the fold change (FC) was found to be 15.9. Further, the MIC in assay [1] amounted to 0.14 µM (≈ 0.0493 µg/mL).
With `COc1ccc2nc(C)cc(OCC(=O)NCCCc3ccccc3)c2c1`, the MIC in assay [1] stood at 2.14 µM (≈ 0.78 µg/mL).
Regarding `COc1ccc2nc(C)cc(OCC(=O)Nc3ccc(C)cc3)c2c1`, the fold change (FC) in assay [2] is > 12.5; in assay [3], > 16.3; in assay [4], 1; in assay [5], > 32.5; in assay [6], > 2; in assay [7], > 2. In addition, the fold change (FC) in assay [8] is > 16.3. The MIC in assay [1] was <0.071 µM.
For `COc1ccccc1NC(=O)COc1cc(C)nc2ccc(C)cc12`, in assay [1], the MIC amounted to 0.45 µM (≈ 0.151 µg/mL). In other words, the sub-micromolar range.
The same measure, in the same setting: in the case of `CCCCCNC(=O)COc1cc(C)nc2ccc(OC)cc12` it was 0.95 µM (≈ 0.301 µg/mL).
As for `Nc1ccc(C(=O)O)c(O)c1` [AMINOSALICYLIC ACID], the fold change (FC) came out at 0.2 in assay [2]; 0.5 in assay [3]; 0.5 in assay [4]; 0.5 in assay [5]; 0.3 in assay [6]; 0.3 in assay [7]. For the same compound, the fold change (FC) in assay [8] is 0.5. The same compound gave a minimum inhibitory concentration (MIC) in assay [1] of 0.6 µM (≈ 0.0919 µg/mL).
The compound `COc1cccc(NC(=O)COc2cc(C)nc3ccc(OC)cc23)c1` returned an MIC in assay [1] of 0.57 µM (≈ 0.201 µg/mL).
Same read-out and setting: the figure for `COc1ccc2nc(C)cc(OCC(=O)Nc3ccc(Cl)cc3)c2c1` is 0.2 µM (≈ 0.0714 µg/mL); for `COc1ccc2nc(C)cc(OCC(=O)NCCc3ccccc3)c2c1` it is 4.45 µM (≈ 1.56 µg/mL).
For the compound `COc1ccc2nc(C)cc(OCC(=O)Nc3ccccc3OC)c2c1`, the fold change (FC) stood at 24.5 in assay [2]; 46.9 in assay [3]; 6.1 in assay [4]; 46.9 in assay [5]; 4.1 in assay [6]; 1.4 in assay [7]. Moreover, in assay [8], the fold change (FC) turned out to be 15.9. This compound also displayed an MIC in assay [1] of 0.14 µM (≈ 0.0493 µg/mL).
`COc1ccc2nc(C)cc(OCC(=O)Nc3ccc4c(c3)OCO4)c2c1`: the fold change (FC) in assay [2] worked out at 32.9; in assay [3] it was 17.1; in assay [4], 1.4; in assay [5] it was 134; in assay [6], 5.6; in assay [7], 2.1. Also, the fold change (FC) in assay [8] was determined as 32.9. This compound came in with an MIC in assay [1] of 0.19 µM (≈ 0.0696 µg/mL).
For `COc1ccccc1NC(=O)COc1cc(C)nc2ccc(Cl)cc12`, the MIC in assay [1] was 1.09 µM (≈ 0.389 µg/mL).
`COc1ccccc1NC(=O)COc1cc(C)nc2ccccc12` had an MIC in assay [1] of 7.13 µM (≈ 2.3 µg/mL).
`COc1ccc2nc(C)cc(OCC(=O)NCCc3ccc(OC)c(OC)c3)c2c1`: the minimal inhibitory concentration (MIC) in assay [1] came out at 90.13 µM (≈ 37 µg/mL). This MIC is about 13-fold higher than that of the compound before.
`c1ccc(Cn2cnc3c(-c4ccco4)nccc32)cc1`: the fold change (FC) is 10.1 in assay [2]; > 81 in assay [3]; 20.2 in assay [4]; > 81 in assay [5]; 20.2 in assay [6]; 20.2 in assay [7]. The fold change (FC) in assay [8] was 61.3. This compound showed an MIC in assay [1] of 0.31 µM (≈ 0.0853 µg/mL).
As to `COc1ccc2nc(C)cc(OCC(=O)Nc3ccccc3Cl)c2c1`, the MIC in assay [1] is <0.067 µM.
Same read-out and setting: the figure for `COc1ccc(OC)c(CCNC(=O)COc2cc(C)nc3ccc(OC)cc23)c1` is 7.62 µM (≈ 3.13 µg/mL); for `COc1cc(NC(=O)COc2cc(C)nc3ccc(OC)cc23)cc(OC)c1` it is 2.04 µM (≈ 0.78 µg/mL).
Still for that read-out and setting: in the case of `COc1ccc2nc(C)cc(OCC(=O)Nc3ccc(OC)c(OC)c3)c2c1` it was 3.14 µM (≈ 1.2 µg/mL); in that of `COc1ccccc1NC(=O)COc1cc(C)nc2ccc(Br)cc12`, 0.5 µM (≈ 0.201 µg/mL).
Regarding `COc1ccc2nc(C)cc(OCC(=O)Nc3ccccc3)c2c1`, the fold change (FC) in assay [2] is 30; in assay [3] it was 235; in assay [4], 1.8; in assay [5], > 1250; in assay [6], 5; in assay [7] it was 3.8. In addition, in assay [8], the fold change (FC) worked out at 19.5. This compound also displayed an MIC in assay [1] of 0.12 µM (≈ 0.0387 µg/mL).
As for `COCCNC(=O)COc1cc(C)nc2ccc(OC)cc12`, in assay [1], the MIC was determined as 41.06 µM (≈ 12.5 µg/mL). This lies in the double-digit micromolar range.
On the same count and under the same terms, the figure for `COc1ccc2nc(C)cc(OCC(=O)Nc3ccc(Br)cc3)c2c1` is 0.17 µM (≈ 0.0682 µg/mL); for `COc1ccc(NC(=O)COc2cc(C)nc3ccc(OC)cc23)c(OC)c1` it is 0.18 µM (≈ 0.0688 µg/mL); for `COc1ccccc1NC(=O)COc1cc(C)nc2ccc(C(F)(F)F)cc12` it is >128 µM.
Turning to `CC(=O)NC[C@H]1CN(c2ccc(N3CCOCC3)c(F)c2)C(=O)O1` [LINEZOLID], the MIC in assay [1] amounted to 1.56 µM (≈ 0.526 µg/mL).
The same measure, in the same setting: the figure for `COc1ccc2nc(C)cc(OCC(=O)Nc3ccc(-c4ccccc4)cc3)c2c1` is 0.12 µM (≈ 0.0478 µg/mL); for `COc1ccc2nc(C)cc(OCC(=O)NCCc3ccc4c(c3)OCO4)c2c1` it is 3.04 µM (≈ 1.2 µg/mL).
As for `COc1ccc2nc(C)cc(OCC(=O)NCc3ccc4c(c3)OCO4)c2c1`, the fold change (FC) in assay [2] is > 32.5; in assay [3], > 25; in assay [4], > 12.5; in assay [5], > 130; in assay [6], > 6.3; in assay [7], > 12.5. In addition, the fold change (FC) in assay [8] was > 95.8. Further, the MIC in assay [1] is <0.063 µM.

These data come from ChEMBL document CHEMBL4190162, “SAR and identification of 2-(quinolin-4-yloxy)acetamides as Mycobacterium tuberculosis cytochrome bc1 inhibitors” (Medchemcomm, 2016).
